Reference: paper PMC8653149, “Cyclic Analogs of Desferrioxamine E Siderophore for ^68Ga Nuclear Imaging: Coordination Chemistry and Biological Activity in Staphylococcus aureus” (Inorganic Chemistry, 2021)

Assays:
[1] = Fe(III) complex stability constants by potentiometric and pH-dependent UV–vis titrations; assay type: physicochemical; settings: calculated for [L] = 1 × 10^–4, [M] = 1 × 10^–5 at pH 7.4
Protocol: Therefore, the stability constants of the first species formed in solution were determined from the spectrophotometric pH-dependent batch titrations carried out in the pH range of around 0.1–2 (Figure S3), by following the changes in the intense LMCT band of the metal complex. These values were further used as constant values in spectrophotometric or potentiometric titrations carried out in the pH range from 2 to 11 (Figure S3) to get the overall stability constants, logβFeL (Table S5). […] Metal–metal competition titrations were carried out at pH 1.6 for FOX 2-5 and FOX 2-4 and at pH 2 for the rest of the analogs and the native compound.
Potentiometric titrations were performed using an automatic titrator system Titrando 905 (Metrohm) equipped with a 800 Dosino dosing unit and a microburet with a volume of 2 mL. A combined glass electrode was calibrated each day for hydrogen ion concentration by 0.1 M HClO4 with CO2-free 0.1 M NaOH solutions. A stream of high purity grade argon, presaturated with water vapor, passed over the surface of the solution cell, filled with 3 mL of the studied solution. For each system, a minimum of four independent titrations was performed. The purity of ligand and accurate concentration of ligand solution were determined before each experiment with the Gran method[68] by potentiometric titration of the 3 mL sample of the ligand, with [L] ∼ 1 × 10^–3 M. In separate potentiometric titrations, the metal-to-ligand ratio was 1:1, and the concentration of metal was 2 × 10^–3 M. The potentiometric data were refined to obtain the overall Fe(III)-FOXE and Ga(III)-FOXE derivative binding constants (logβFe(III)L, logβGa(III)L).
The absorption measurements (200 nm–800 nm) were performed on a Varian Cary 300 Bio UV–visible spectrophotometer. The solutions were measured in high precision Quartz […] cuvettes (1 and 3 mL) with 1 cm lightpath (Hellma).
Two series of experiments were performed: (i) in the pH range of 0.1–2 and (ii) between pH 2 and 11. In the first series of experiments, (i) the stock solution of the ligand was divided into various batches followed by Fe(III) addition, with a constant total volume of 2 mL, [Fe(III)] = 2 × 10^–4 M, and a metal-to-ligand molar ratio of 1:1. The pH was controlled by concentration of the perchloric acid. After preparation, each solution was allowed to equilibrate for 1 h at 25 °C, and then its UV–vis spectrum was recorded.
The experimental sets with over 140 points collected in the pH range 2–11 for a single potentiometric measurement were imported to the […] software,[69] which uses nonlinear least-squares methods for data treatment. Spectroscopic data were refined using SPECFIT/32 software, which uses factor analysis to reduce the absorbance matrix and to extract the eigenvalues prior to the multiwavelength fit of the reduced data set according to the Marquardt algorithm and adjusts the absorptivity and the stability constants of the species formed at equilibrium.[70]−[72] Standard deviation was used for the calculation of the uncertainties in logβ. Speciation plots were prepared using HYSS software,[73] implementing data gathered in Tables S4, S5, and S8. Raw data was processed using Origin 7.0.

[2] = Ga(III) complex stability constants by Fe(III)–Ga(III) metal–metal competition, potentiometric and UV–vis pH-metric titrations; assay type: physicochemical; settings: for logβ[GaL] / logβ[GaHL]+: M:L 1:1, T = 25°C; for logβ[GaL] / logβ[GaHL]+ / pKNHOH (pK of [GaL] formation from [GaHL]+): I = 0.1 M NaClO4; for pGa(III): calculated, pH 7.4; for logβ[GaHL]+: competition UV-Vis titrations; for pKNHOH (pK of [GaL] formation from [GaHL]+): T = 25 °C
Description: The next step was to determine the coordination specificity of investigated ligands toward Ga(III) ions. This is a somewhat challenging task because it requires indirect methods since the investigated complexes started to form in a very acidic environment, where potentiometric measurements were not accurate owing to the error of the glass electrode,[55],[56] and gallium is spectroscopically silent in UV–vis. To bypass this inconvenience, we implemented metal–metal competition assays. After addition of a significant molar excess of Ga(III), the LMCT band of Fe(III)-FOXE analog complexes was almost fully silenced as Ga(III) replaced Fe(III) in its complexes (Figure S5). By implementing those spectral changes, we were able to calculate the stability constants of the Ga(III)-FOXE analog species present below or around pH 2, [GaHL]^+ (Table S8). Stability constants for the [GaL] species, present above pH 2, could be determined by potentiometric titrations for Ga(III)-FOX 2-2, 2-3, 2-4, and 3-5, with logβ of [GaHL]^+ fixed in the calculations (Table S8). For Ga(III)-FOX 2-5, we could not observe any deprotonation step using this methodology. To confirm this behavior, UV–vis titration of the Ga(III)-FOX 2-5 analog complex was performed in the 200–300 nm spectral range (Figure S6) corresponding to the hydroxamate groups’ protonation state.[57]−[59] […] Above pH 4, there were no significant changes in maxima localization or absorbance intensity. Above pH 9, absorbance started to rise again, which indicated complex dissociation. […] Overall, the data indicated a decreased stability of [GaL] species when decreasing or increasing the ring size of Ga(III)-FOX 2-5, as reflected by pKNHOH (Table S8). Implementing this full coordination specification of Ga(III)-FOX complexes, we were able to calculate speciation plots which are presented in Figure 1 for the most efficient analogs FOX 2-4 and FOX 2-5, given here as examples, and in Figure S7 for others.
Proposed biomimetic analogs of cyclic siderophore FOXE bind Fe(III) ions starting from pH around 0, and the complexation is essentially complete far below or around pH of 2. Therefore, the stability constants of the first species formed in solution were determined from the spectrophotometric pH-dependent batch titrations carried out in the pH range of around 0.1–2 (Figure S3), by following the changes in the intense LMCT band of the metal complex. These values were further used as constant values in spectrophotometric or potentiometric titrations carried out in the pH range from 2 to 11 (Figure S3) to get the overall stability constants, logβFeL (Table S5). Since Ga(III)-FOX complexes present similar coordination properties, the first species start to form below pH 2 as well. However, in this case, we have used indirect methods to determine stability constants for Ga(III)-FOXE analogs and the Ga(III) complex with native FOXE, as Ga(III) complexes are spectroscopically silent in the UV–vis region. Metal–metal competition titrations were carried out at pH 1.6 for FOX 2-5 and FOX 2-4 and at pH 2 for the rest of the analogs and the native compound. The intense LMCT band of the Fe(III) complex was silenced after addition of a fixed volume of Ga(III) ions (Figure S5).
Potentiometric titrations were performed using an automatic titrator system Titrando 905 (Metrohm) equipped with a 800 Dosino dosing unit and a microburet with a volume of 2 mL. A combined glass electrode was calibrated each day for hydrogen ion concentration by 0.1 M HClO4 with CO2-free 0.1 M NaOH solutions. A stream of high purity grade argon, presaturated with water vapor, passed over the surface of the solution cell, filled with 3 mL of the studied solution. For each system, a minimum of four independent titrations was performed. […]

[3] = potentiometric, [L] = 1·10^-3 M

SMILES | pFe(III) [1] | logβ[GaL] ([2]; UV-Vis (metal–metal competition) titrations, [L] = 1·10^-4 M) | pGa(III) [2] | logβ[GaHL]+ ([2]; [L] = 1·10^-4 M) | logβ[GaL] [2, 3] | pKNHOH (pK of [GaL] formation from [GaHL]+) [2]
O=C1CCCCCN(O)C(=O)CCNC(=O)CCCCCN(O)C(=O)CCNC(=O)CCCCCN(O)C(=O)CCN1 [FOX 2-5] | 27.0 | 29.52 (6) | 25.2 |  |  | 
O=C1CCN(O)C(=O)CCNC(=O)CCN(O)C(=O)CCNC(=O)CCN(O)C(=O)CCN1 [FOX 2-2] | 21.5 |  | 21.4 | 28.48 (4) | 26.52 (5) | 
O=C1CCCCCN(O)C(=O)CCCNC(=O)CCCCCN(O)C(=O)CCCNC(=O)CCCCCN(O)C(=O)CCCN1 [FOX 3-5] | 24.1 |  | 22.6 | 29.45 (1) | 26.58 (4) | 2.87
O=C1CCCN(O)C(=O)CCNC(=O)CCCN(O)C(=O)CCNC(=O)CCCN(O)C(=O)CCN1 [FOX 2-3] | 22.7 |  | 20.8 | 28.30 (4) | 26.02 (1) | 2.28
O=C1CCCCN(O)C(=O)CCNC(=O)CCCCN(O)C(=O)CCNC(=O)CCCCN(O)C(=O)CCN1 [FOX 2-4] | 24.3 |  | 21.8 | 28.84 (5) | 26.28 (1) | 2.56
